The data set is described as follows: Solubility of sirolimus in aqueous media, solvents and benzyl benzoate/ethanol mixtures. Format: physicochemical.

The source of these data is US10682340B2, “Depot formulations” (DURECT CORPORATION, priority 2016, dated 2020).

Each structure is given as a SMILES string. Converted amounts (≈) assume the structure as drawn. Where two headings read alike, the source gives them in different places. Some results are limits rather than exact numbers.

Regarding `CO[C@H]1C[C@@H]2CC[C@@H](C)[C@@](O)(O2)C(=O)C(=O)N2CCCC[C@H]2C(=O)O[C@H]([C@H](C)C[C@@H]2CC[C@@H](O)[C@H](OC)C2)CC(=O)[C@H](C)/C=C(\C)[C@@H](O)[C@@H](OC)C(=O)[C@H](C)C[C@H](C)/C=C/C=C/C=C/1C` [Sirolimus, sirolimus], the solubility runs as follows: (PBS with 0.1% SDS, aqueous with cosolvent or surfactant or cyclodextrin, PBS, 0.1% SDS, pH 7.4, ambient temperature, read-out: Solubility) 0.23 mg/mL (≈ 0.252 mM); (PBS, pH 7.4, ambient temperature) “Not detected”; (benzyl benzoate/ethanol mixture, organic solvent or mixture, BB/EtOH Ratio 7, room temperature, read-out: Solubility in Benzyl Benzoate/Ethanol) 163 mg/mL; (benzyl benzoate/ethanol mixture, organic solvent or mixture, BB/EtOH Ratio 9, room temperature, read-out: Solubility in Benzyl Benzoate/Ethanol) 125 mg/mL; (benzyl benzoate/ethanol mixture, organic solvent or mixture, BB/EtOH Ratio 16, room temperature, read-out: Solubility in Benzyl Benzoate/Ethanol) 90.1 mg/mL; (benzyl benzoate/ethanol mixture, organic solvent or mixture, BB/EtOH Ratio 18, room temperature, read-out: Solubility in Benzyl Benzoate/Ethanol) 85.6 mg/mL. The solubility (oil or lipid, Castor oil, ambient temperature, read-out: Solubility) is 3 mg/mL (≈ 3.28 mM); the solubility (organic solvent or mixture, Benzyl alcohol (BA), ambient temperature, read-out: Solubility) is no less than 387 mg/mL; the solubility (organic solvent or mixture, Benzyl benzoate (BB), ambient temperature, read-out: Solubility) worked out at 37 mg/mL (≈ 40.5 mM); the solubility (organic solvent or mixture, Dimethyl sulfoxide (DMSO), ambient temperature, read-out: Solubility) was no less than 243 mg/mL; the solubility (organic solvent or mixture, Ethanol (EtOH), ambient temperature, read-out: Solubility) worked out at 48.5 mg/mL (≈ 53.1 mM); the solubility (organic solvent or mixture, N methyl-2 Pyrrolidone (NMP), ambient temperature, read-out: Solubility) is no less than 284 mg/mL. For the same molecule, the solubility by setting is: (organic solvent or mixture, PEG 400, ambient temperature, read-out: Solubility) 10.7 mg/mL (≈ 11.7 mM); (organic solvent or mixture, Propylene glycol, ambient temperature, read-out: Solubility) 11.8 mg/mL (≈ 12.9 mM).
